Data: ChEMBL document CHEMBL1150060, “Potent inhibitors of histamine release, two novel triterpenoids from the Okinawan marine sponge Penares incrustans” (J Nat Prod, 1992)

Assays:
[1] = Cytotoxicity against rat peritoneal mast cells assessed as cell viability by trypan blue exclusion assay; type: cell-based; details: read-out: Activity
Mast cell = assay: Inhibition of anti-IgE-induced histamine release in rat peritoneal mast cells; type: functional, cell-based

Compound	viability [1] [%]	Activity (Mast cell)	IC50 (Mast cell) [µM]
CC(C)=CCC[C@@H](C)[C@H]1CC[C@@]2(C(=O)O)C3=C(CC[C@]12C)[C@@]1(C)CCC(=O)C(C)(C)[C@@H]1CC3 [PENASTERONE]	97	Dose-dependent effect	1.5
CC(=O)O[C@H]1CC[C@]2(C)C3=C(CC[C@H]2C1(C)C)[C@]1(C(=O)O)CC[C@H]([C@H](C)CCC=C(C)C)[C@@]1(C)CC3 [ACETYLPENASTEROL]	97	Dose-dependent effect	10
